13 compounds from patent US20220289698A1, “INHIBITORS OF HUMAN ATGL” (Karl-Franzens-Universität Graz, priority 2019, published 2022) can be followed below.

The target in one data set is T1, hPNPLA9 (Homo sapiens, UniProt O60733).
T1 construct: made in house; host or cells: Expi cells (lysate)
T1 sequence (O60733 1-806): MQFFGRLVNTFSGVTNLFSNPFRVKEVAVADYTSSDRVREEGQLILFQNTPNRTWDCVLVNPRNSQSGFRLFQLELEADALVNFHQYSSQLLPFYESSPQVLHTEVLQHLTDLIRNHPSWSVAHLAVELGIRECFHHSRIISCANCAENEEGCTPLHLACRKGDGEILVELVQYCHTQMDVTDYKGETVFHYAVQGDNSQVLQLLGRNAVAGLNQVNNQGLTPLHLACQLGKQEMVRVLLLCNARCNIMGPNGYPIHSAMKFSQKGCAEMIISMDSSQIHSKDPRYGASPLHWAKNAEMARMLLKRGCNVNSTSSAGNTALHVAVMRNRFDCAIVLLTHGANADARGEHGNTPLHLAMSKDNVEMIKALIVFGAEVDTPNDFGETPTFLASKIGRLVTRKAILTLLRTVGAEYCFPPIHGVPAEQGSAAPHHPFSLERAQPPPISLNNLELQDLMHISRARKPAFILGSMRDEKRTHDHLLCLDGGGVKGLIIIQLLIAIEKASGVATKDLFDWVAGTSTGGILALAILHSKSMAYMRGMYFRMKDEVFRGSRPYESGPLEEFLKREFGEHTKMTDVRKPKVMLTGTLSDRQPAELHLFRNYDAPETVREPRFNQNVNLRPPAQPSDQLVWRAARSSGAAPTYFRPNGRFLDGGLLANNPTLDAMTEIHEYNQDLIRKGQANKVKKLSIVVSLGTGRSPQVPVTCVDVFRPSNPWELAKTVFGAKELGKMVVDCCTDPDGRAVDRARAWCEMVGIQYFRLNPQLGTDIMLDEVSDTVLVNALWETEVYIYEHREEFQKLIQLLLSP
The data set can be described thus: hPNPLA9 off-target inhibition. The note with it: read-out: hPNPLA9 off-target inhibition [% inhibition at 100 μM]. The class given is biochemical. The protocol: Expi lysates expressing hPNPLA9 were treated with 100 μM Inhibitors and incubated with 1 mM C8 monoacylglycerol substrate (containing 5 mM CHAPS, 50 mM NaPh buffer ph7.4, 0.15 M NaCl) for 40 min. Glycerol release was determined via Free glycerol reagent (Sigma Aldrich). Samples measured in triplicates, […]

A further data set can be described thus: Stability in human serum. The note with it: 37° C., HPLC MS. The class given is in vitro ADME. The protocol:
Inhibitors were incubated in human serum for 0 or 3 h at 37° C. and subsequently extracted with the MTBE method and analyzed via HPLC MS. Samples measured in triplicates.

For a further data set, the system named is pig vWAT. In words: Pig vWAT inhibition, visceral adipose tissue lysates + CGI-58. Format: biochemical. As for the experimental part:
Lysates from visceral adipose tissue of pigs (Sus scrofa) were incubated with recombinant purified ATGL co-activator CGI-58 and ATGL inhibitors at 50 μM. Subsequently, substrate containing radiolabeled triolein was added and liberated FA were extracted and quantified by liquid scintillation. Inhibitors were dissolved in DMSO which was used as control. Samples were measured in triplicates.

A further data set deals with T2, hPNPLA6 (Homo sapiens, UniProt Q8IY17).
T2 construct: made in house; host or cells: Expi cells (lysate)
T2 sequence (Q8IY17 1-1375): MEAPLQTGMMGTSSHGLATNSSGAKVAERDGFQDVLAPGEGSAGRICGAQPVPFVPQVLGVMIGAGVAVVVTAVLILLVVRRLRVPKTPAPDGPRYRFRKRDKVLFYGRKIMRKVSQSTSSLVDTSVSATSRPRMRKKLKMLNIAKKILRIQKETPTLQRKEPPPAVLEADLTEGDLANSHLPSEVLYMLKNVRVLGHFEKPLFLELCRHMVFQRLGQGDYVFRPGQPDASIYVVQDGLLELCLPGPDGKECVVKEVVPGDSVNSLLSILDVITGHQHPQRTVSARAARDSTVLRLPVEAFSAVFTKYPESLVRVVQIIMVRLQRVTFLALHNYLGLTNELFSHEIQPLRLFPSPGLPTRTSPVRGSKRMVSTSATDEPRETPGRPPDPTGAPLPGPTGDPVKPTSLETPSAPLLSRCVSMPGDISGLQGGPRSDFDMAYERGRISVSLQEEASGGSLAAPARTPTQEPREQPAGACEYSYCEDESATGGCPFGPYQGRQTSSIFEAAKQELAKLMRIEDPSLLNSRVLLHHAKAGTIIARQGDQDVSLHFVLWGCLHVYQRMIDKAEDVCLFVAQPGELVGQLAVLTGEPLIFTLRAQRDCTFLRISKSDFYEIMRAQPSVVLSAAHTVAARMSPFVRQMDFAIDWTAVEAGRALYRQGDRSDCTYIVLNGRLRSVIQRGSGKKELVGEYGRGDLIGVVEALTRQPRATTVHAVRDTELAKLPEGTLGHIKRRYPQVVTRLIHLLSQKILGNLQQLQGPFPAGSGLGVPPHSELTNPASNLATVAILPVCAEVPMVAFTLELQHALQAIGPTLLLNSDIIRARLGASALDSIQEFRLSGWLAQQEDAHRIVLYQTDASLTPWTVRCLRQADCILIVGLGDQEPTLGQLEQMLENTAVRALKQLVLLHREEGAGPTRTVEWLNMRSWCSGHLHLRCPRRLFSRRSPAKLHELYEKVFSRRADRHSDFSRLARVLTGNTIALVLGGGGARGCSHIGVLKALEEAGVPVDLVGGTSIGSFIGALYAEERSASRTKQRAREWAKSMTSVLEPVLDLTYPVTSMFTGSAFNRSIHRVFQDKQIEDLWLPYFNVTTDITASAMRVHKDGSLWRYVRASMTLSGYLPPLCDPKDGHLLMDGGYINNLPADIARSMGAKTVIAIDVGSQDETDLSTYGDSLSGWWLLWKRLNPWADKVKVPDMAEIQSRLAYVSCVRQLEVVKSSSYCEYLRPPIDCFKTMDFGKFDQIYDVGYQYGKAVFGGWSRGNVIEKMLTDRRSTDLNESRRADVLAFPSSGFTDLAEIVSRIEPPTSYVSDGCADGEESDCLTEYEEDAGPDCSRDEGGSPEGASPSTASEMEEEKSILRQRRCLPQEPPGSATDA
The data set can be described thus: hPNPLA6 off-target inhibition. The note with it: read-out: hPNPLA6 off-target inhibition [% inhibition at 100 μM]. The class given is biochemical. As for the experimental part: Expi lysates expressing hPNPLA6 were treated with 100 μM Inhibitors and incubated with 1 mM C8 monoacylglycerol substrate (containing 5 mM CHAPS, 50 mM NaPh buffer ph7.4, 0.15 M NaCl) for 40 min, Glycerol release was determined via Free glycerol reagent (Sigma Aldrich). Samples measured in triplicates.

With `CCOc1ccc(-c2cc(OC)cc(C(=O)OC(C)C)n2)cc1` [Example 35], at hPNPLA9, the inhibition (as a rule, the share of the control response that was lost under treatment) at 100 µM stood at 0%. In the data set “Stability in human serum”, the “Stability in human serum [% rest after 3 h incubation]” value was determined as 75%.

Regarding `CCOc1ccc(-c2nc(C(=O)OCc3cccs3)cs2)cc1` [Example 152, Thiophen-2-ylmethyl 2-(4-ethoxyphenyl)thiazole-4-carboxylate], the “pig vWAT inhibition [% inhibition at 50 μM” value in the data set on pig vWAT came out at 0%. Further, the inhibition at 100 µM on hPNPLA9 and at hPNPLA6 was 0% each time. The “Stability in human serum [% rest after 3 h incubation]” value in the data set “Stability in human serum” was determined as 80%.

For `CCOc1ccc(-c2cccc(C(=O)OCc3cccs3)n2)cc1` [Example 189, Thiophen-2-ylmethyl 6-(4-ethoxyphenyl)picolinate], the “pig vWAT inhibition [% inhibition at 50 μM” value with pig vWAT is given as 15%. Moreover, the inhibition at 100 µM on hPNPLA9 and at hPNPLA6 was 0% throughout. The “Stability in human serum [% rest after 3 h incubation]” value in the data set “Stability in human serum” is 25%.

Take `CCOc1ccc(-c2cccc(C(=O)OCc3ccco3)n2)cc1` [Example 190, Furan-2-ylmethyl 6-(4-ethoxyphenyl)picolinate]: the “pig vWAT inhibition [% inhibition at 50 μM” value in the data set on pig vWAT is 0%. The inhibition at 100 µM at hPNPLA9 and at hPNPLA6 was 0% throughout. Moreover, in “Stability in human serum”, the “Stability in human serum [% rest after 3 h incubation]” value worked out at 0%.

`COc1cc(C(=O)OC(C)C)nc(-c2ccc(OC(C)C)cc2)c1` [Example 201, Isopropyl 6-(4-isopropoxyphenyl)-4-methoxypicolinate]: the “pig vWAT inhibition [% inhibition at 50 μM” value with pig vWAT worked out at 0%. For the same compound, the inhibition at 100 µM on hPNPLA9 and on hPNPLA6 was 0% each time. Also, in “Stability in human serum”, the “Stability in human serum [% rest after 3 h incubation]” value is listed as 100%.

`CC#CCOC(=O)c1csc(-c2ccc(OCC)cc2)n1` [Example 209, But-2-yn-1-yl 2-(4-ethoxyphenyl)thiazole-4-carboxylate]: the “pig vWAT inhibition [% inhibition at 50 μM” value in the data set on pig vWAT came to 0%. For the same compound, the inhibition at 100 µM at hPNPLA9 and on hPNPLA6 was 0% each time. Moreover, the “Stability in human serum [% rest after 3 h incubation]” value in the data set “Stability in human serum” came out at 75%.

In the case of `C#C[C@H](C)OC(=O)c1csc(-c2ccc(OCC)cc2)n1` [Example 210, (S)-But-3-yn-2-yl 2-(4-ethoxyphenyl)thiazole-4-carboxylate], the “pig vWAT inhibition [% inhibition at 50 μM” value with pig vWAT is listed as 5%. For the same compound, the inhibition at 100 µM on hPNPLA9 and at hPNPLA6 was 0% each time. Also, the “Stability in human serum [% rest after 3 h incubation]” value in “Stability in human serum” is on record as 100%.

For the compound `C#C[C@@H](C)OC(=O)c1csc(-c2ccc(OCC)cc2)n1` [Example 211, (R)-But-3-yn-2-yl 2-(4-ethoxyphenyl)thiazole-4-carboxylate], the “pig vWAT inhibition [% inhibition at 50 μM” value in the data set on pig vWAT was 5%. Also, the inhibition at 100 µM on hPNPLA9 and at hPNPLA6 was 0% throughout. Besides, in “Stability in human serum”, the “Stability in human serum [% rest after 3 h incubation]” value was determined as 90%.

As for `CCCCOC(=O)c1csc(-c2ccc(OCC)cc2)n1` [Example 212, Butyl 2-(4-ethoxyphenyl)thiazole-4-carboxylate], in the data set on pig vWAT, the “pig vWAT inhibition [% inhibition at 50 μM” value is listed as 5%. The inhibition at 100 µM at hPNPLA9 and at hPNPLA6 was 0% each time. Moreover, in “Stability in human serum”, the “Stability in human serum [% rest after 3 h incubation]” value came to 50%.

Turning to `CCOc1ccc(-c2nc(C(=O)OCc3ccsc3)cs2)cc1` [Example 215, Thiophen-3-ylmethyl 2-(4-ethoxyphenyl)thiazole-4-carboxylate], the “pig vWAT inhibition [% inhibition at 50 μM” value with pig vWAT was determined as 15%. The inhibition at 100 µM on hPNPLA9 and at hPNPLA6 was 0% each time. Further, the “Stability in human serum [% rest after 3 h incubation]” value in “Stability in human serum” came to 80%.

For the compound `CCOc1ccc(-c2nc(C(=O)OCc3ccoc3)cs2)cc1` [Example 216, Furan-3-ylmethyl 2-(4-ethoxyphenyl)thiazole-4-carboxylate], the “pig vWAT inhibition [% inhibition at 50 μM” value in the data set with pig vWAT is given as 15%. Also, the inhibition at 100 µM at hPNPLA9 and at hPNPLA6 was 0% in each case. In addition, the “Stability in human serum [% rest after 3 h incubation]” value in the data set “Stability in human serum” was found to be 60%.

For `CCOc1ccc(-c2nc(C(=O)OCc3ccc(Cl)s3)cs2)cc1` [Example 223, (5-Chlorothiophen-2-yl)methyl 2-(4-ethoxyphenyl)thiazole-4-carboxylate], in the data set with pig vWAT, the “pig vWAT inhibition [% inhibition at 50 μM” value is on record as 15%. For the same compound, the inhibition at 100 µM at hPNPLA9 and at hPNPLA6 was 0% throughout. In addition, the “Stability in human serum [% rest after 3 h incubation]” value in “Stability in human serum” stood at 80%.

Regarding `CCOc1ccc(-c2nc(C(=O)OCc3ccc(Br)s3)cs2)cc1` [Example 224, (5-Bromothiophen-2-yl)methyl 2-(4-ethoxyphenyl)thiazole-4-carboxylate], the “pig vWAT inhibition [% inhibition at 50 μM” value in the data set with pig vWAT stood at 15%. The inhibition at 100 µM on hPNPLA9 and at hPNPLA6 was 0% each time.
